Experimental data taken from PMC11400632, “Substrate selectivity and inhibition of the human lysyl hydroxylase JMJD7” (Protein Science : A Publication of the Protein Society, 2024).

Experiments:
Type in all cases: biochemical
[1] = target: T1, human JMJD7 (Homo sapiens, UniProt P0C870); assay: LC-MS assay of JMJD7-catalyzed hydroxylation/oxidation of DRG1 peptides; conditions: standard conditions: 2 μM JMJD7, 10 μM peptide, 10 μM 2OG, 2 h
T1 construct: human JMJD7 (residues 1–316) with an N‐terminal His6‐tag; His6 (N); made in house; host or cells: Escherichia coli Rosetta (DE3)
T1 sequence (P0C870 whole entry, the tested form may be a part): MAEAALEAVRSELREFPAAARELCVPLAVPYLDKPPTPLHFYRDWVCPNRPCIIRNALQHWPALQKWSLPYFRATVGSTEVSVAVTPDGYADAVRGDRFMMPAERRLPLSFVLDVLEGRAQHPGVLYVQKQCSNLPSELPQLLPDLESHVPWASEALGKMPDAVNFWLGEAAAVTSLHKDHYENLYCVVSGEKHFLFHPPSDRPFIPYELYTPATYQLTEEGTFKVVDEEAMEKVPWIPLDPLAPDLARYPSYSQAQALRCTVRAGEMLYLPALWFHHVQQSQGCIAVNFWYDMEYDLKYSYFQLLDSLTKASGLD
Description: Initial assays were carried out by incubation of purified recombinant (Markolovic et al., [2018]) human JMJD7 (2 μM) in the presence of a DRG1 derived peptide (10 μM), 2OG (10 μM), ferrous ammonium sulfate (FAS, 10 μM), and L‐ascorbate (LAA, 100 μM) in Tris buffer at pH 7.5 for 2 h at room temperature. Potential conversion to a hydroxylated product (+16 Da mass shift) was monitored by liquid‐chromatography‐mass‐spectrometry (LC–MS). […] The assay results also implied that DRG1‐Orn was hydroxylated, but to a lower extent (~21%) than DRG1‐Lys. […] The alcohol‐containing peptide hydroxynorleucine (DRG1‐HNle), was hydroxylated at relatively low levels (~24%), implying that H‐bonding interactions and positive charge of the N^ɛ‐amino group of lysine are important for efficient binding and catalysis, but that a neutral alcohol can still be accommodated at the active site (Figure 3f) (Markolovic et al., [2018]).
All reagents were procured from Sigma Aldrich. 2‐Oxoglutarate (2OG, 10 mM) and L‐ascorbic acid (LAA, 50 mM) solutions were prepared freshly by dissolving the solids in deionized water. Ferrous ammonium sulfate (FAS) solution was prepared freshly by dissolving FAS at 400 mM in 20 mM HCl with subsequent dilution to 1 mM using deionized water. JMJD7 assays using DRG1 (16–40) based peptides were performed with the following conditions: (i) 2 or 5 μM JMJD7, 10 μM DRG1 peptide, 100 μM LAA, 10 μM FAS, 10 μM 2OG in mM 50 Tris‐buffer (pH 7.5), (ii) 2 μM JMJD7, 10 μM DRG1 peptide, 100 μM LAA, 10 μM FAS, 20 μM 2OG in mM 50 Tris‐buffer (pH 7.5). Reactions were initiated by addition of enzyme to the cosubstrate/substrate solution in a final reaction volume of 50 μL with 2 h incubation at room temperature. A positive control reaction containing enzyme and a validated peptide substrate was included in all screening studies. After 2 h, reactions were stopped by addition of 5 μL of 10% (v/v) LC–MS grade formic acid (Fisher Scientific) and transferred to a 96 well plate (Agilent). Intact mass peptide analysis was performed by LC–MS using an Agilent 1290 infinity II LC system equipped with an Agilent 1290 multisampler and an Agilent 1290 high speed pump and connected to an Agilent 6550 accurate mass iFunnel quadrupole time of flight (Q‐TOF) mass spectrometer. The reaction mixture (4 μL) was injected and loaded onto a ZORBAX RRHD Eclipse Plus C18 column (Agilent). Solvent A consisted of LC–MS grade water containing 0.1% (v/v) formic acid and solvent B consisted of MeCN containing 0.1% (v/v) formic acid. Peptides were separated using a step wise gradient (0 min – 95% solvent A, 1.0 min – 80% solvent A, 3.0 min – 45% solvent A, 4.0 min – 45% solvent A, 5.0 min – 0% solvent A, 6.0 min – 0% solvent A, 7.0 min – 95% solvent A). This was followed by a 3 min elution with 95% solvent A to re‐equilibrate the column. Flow rates were 0.2 mL/min. The mass spectrometer was operated in the positive ion mode with a drying gas temperature (280°C), drying gas flow rate (13 L min^−1), nebulizer pressure (40 psig), sheath gas temperature (350°C), sheath gas flow rate (12 L min^−1), capillary voltage (4000 V), nozzle voltage (1000 V). Data were analyzed using Agilent MassHunter Qualitative Analysis (Version B.07.00) software.

[2] = target: T1, human JMJD7; assay: SPE-MS time-course and steady-state kinetics of JMJD7-catalyzed hydroxylation; conditions: 1.0 μM peptide, 50 nM JMJD7, SPE-MS time-course
Description: Having shown that introduction of γ‐thialysine and γ‐azalysine residues into DRG1 peptides generates substrates that are efficiently hydroxylated by JMJD7, giving nascent products that fragment to give formylglycine, we explored whether these two peptides could compete with the DRG1‐Lys substrate for JMJD7 catalysis. The reactions of DRG1‐Lys, DRG1‐CysNH2 and DRG1‐LysN (1.0 μM) by JMJD7 (50 nM) were investigated as a function of time using SPE‐MS assays.
To quantify the relative efficiencies of DRG1‐Lys and the substrate analog DRG1‐LysE, we carried out kinetics analyses using SPE‐MS assays as the levels of JMJD7‐catalyzed hydroxylation were sufficient for these two substrates.
JMJD7 turnover assays for kinetic studies were performed in 96‐well polypropylene assay plates with 1.0 mL total reaction volume using a series of concentrations of the DRG1 peptide (0.1–5.0 μM), 2OG (20 μM), FAS (10 μM), LAA (100 μM). Reactions were initiated by the addition of JMJD7 (100 nM). MS‐analyses were performed using a RapidFire RF 365 high‐throughput sampling robot (Agilent) attached to an iFunnel Agilent 6550 accurate mass quadrupole time‐of‐flight (Q‐TOF) mass spectrometer operated in the positive ionization mode. The RapidFire RF 365 high‐throughput sampling robot was programmed to aspirate samples from the reaction mixture at the indicated time intervals. Assay samples were loaded onto a C4 solid phase extraction (SPE) cartridge and peptides were eluted using given previous protocols (Tumber et al., [2023]). The % conversion of the hydroxylation reaction were calculated from the ion chromatogram data by integrating peak areas using RapidFire Integrator 4.3.0 software (Agilent).

[3] = target: T1, human JMJD7; assay: NMR assay of JMJD7-catalyzed reaction of DRG1 peptides; conditions: 200 μM peptide, 10 μM JMJD7, 30 μM FAS, 200 μM 2OG, 500 μM LAA, phosphate buffer 10% D2O, pH 7.4, 1H NMR time-course
Description: To validate the fragmentation of the product on hydroxylation of the DRG1‐CysNH2 peptide, we performed NMR studies focusing on the appearance of small molecules, comparing the results with the DRG1‐Lys substrate. Reactions were carried out by incubating the DRG1 peptide (200 μM) in the presence or absence of enzyme (10 μM JMJD7, 30 μM FAS, 200 μM 2OG, 500 μM LAA, phosphate buffer in 10% D2O v/v, pH 7.4). […] The observation of a DRG1‐CysNH2 derived product with two methylene groups (triplets, δ ~ 3.13 ppm, δ ~ 2.75 ppm) together with spiking using a standard solution confirmed the formation of cysteamine (Figure 4c (1), Figure S35a). […] A loss in intensity of the cysteamine peaks was observed over time, possibly indicating oxidation and/or interactions with JMJD7 (Figure S35).
Stock solutions of L‐ascorbate (LAA; 500 mM), 2‐oxoglutarate (2OG; 20 mM), ferrous ammonium sulphate (FAS; 100 mM), and (trimethylsilyl)propionic‐2,2,3,3‐d 4 (TSP‐d 4; 8 mM) were freshly prepared in water on the day NMR assays were run. These stock solutions of LAA, FAS, and 2OG were diluted using aqueous buffer (50 mM sodium phosphate, pH 7.4, 10% v/v D2O) to give FAS (0.3 mM), 2OG (2 mM), and LAA (5 mM). DRG1 peptides were solubilized in buffer to a final concentration of 2 mM for use in NMR assays. […] Turnover was quantified using TSP‐d 4 as an internal standard.

time to complete JMJD7-catalyzed hydroxylation [2]: ≤ 4 min | time to formation of the cysteamine fragment [3]: ≤ 15 min
Substance: ARTQKNCysNH2ATAHHLGLLKARLAKLRR [DRG1‐CysNH2, 25-mer DRG1 (16–40) peptide with γ-thialysine at position 22]
fate of the JMJD7 C3-hydroxylation product [1]: fragmentation to form DRG1‐formylglycine and its hydrated products
